# Measurements reported in the OligoGym collection.
# Values joined by “and” are separate entries in the source; they are usually repeats but may differ in a detail not shown here. Equal values may be shown once. After the bases stand the sugars from the 5' end (letter, count) and the backbone: PS all phosphorothioate, else s phosphorothioate and o phosphodiester by linkage. Methylation of C is not given here. [mop] = methoxypropylphosphonate linkage; e = 2'-O-(2-methoxyethyl) (MOE); k = constrained ethyl (cEt); d = 2'-deoxy (DNA); m = 2'-O-methyl
# Biological target: IRF5
# Settings: ASO
Sequence,"target mRNA inhibition (KARPAS-229, 4 µM)",also measured
"ACCATTCTATGCCTTT (sugars kkkddddddddkdkdk, PS)",11%,
"ACTGACACAGGCGGAT (sugars k3 d9 k3 e1, PS)",0%,
"ACTGACACAGGCGGAT (sugars kkkddddddddkekek, PS)",0%,
"AGATGGTGTTATCTCC (sugars k3 d10 k3, PS)",0%,
"AGATGGTGTTATCTCC (sugars kkddddddddddkeke, PS)",0%,
"AGATGGTGTTATCTCC (sugars kkkdddddddddkeke, PS)",8%,
"AGATGGTGTTATCTCC (sugars kkkddddddddkdkdk, PS)",0%,
"AGCTTGGTCTTGACCT (sugars k3 d9 k3 e1, PS)",10%,
"AGCTTGGTCTTGACCT (sugars kkkdddddddddkeke, PS)",26%,
"AGCTTTCTTGTCTAGT (sugars k3 d10 k3, PS)",20%,
"AGGAAGTGAGTCTCAA (sugars kdddddddddkekeke, PS)",23%,
"AGGAGTGAGACGAGCA (sugars kkddddddddddkeke, PS)",28%,
"AGGTTCTTGGACTCTC (sugars k3 d10 k3, PS)",0%,
"AGGTTCTTGGACTCTC (sugars kdddddddddkekeke, PS)",0%,
"AGGTTCTTGGACTCTC (sugars kkdddddddddkdkdk, PS)",36%,
"AGGTTCTTGGACTCTC (sugars kkkddddddddkekek, PS)",8%,
"AGTAGGACGAGTTATG (sugars k3 d10 k3, PS)",0%,
"AGTGAGACGAGCAAAG (sugars k3 d10 k3, PS)",16%,
"ATACCCAATGCAACAT (sugars k3 d10 k3, PS)",1%,
"ATCTGATATGATACCT (sugars k3 d10 k3, PS)",36%,
"ATGAGTAATAGGAGTG (sugars k3 d10 k3, PS)",56% and 52%,"target mRNA inhibition (KARPAS-229, 0.44444 µM): 15%; target mRNA inhibition (KARPAS-229, 1.33333 µM): 46%; target mRNA inhibition (KARPAS-229, 12 µM): 70%"
"ATGAGTCATGGGCTGA (sugars kkkddddddddkekek, PS)",0%,
"ATGCAACATCCATCAA (sugars k3 d10 k3, PS)",0%,
"CAATGCAACATCCATC (sugars kddddddddddkekek, PS)",0%,

Sequence,"target mRNA inhibition (KARPAS-229, 4 µM)",also measured
"CACATCTCCACATCAG (sugars kkddddddddkekekk, PS)",17%,
"CACATCTCCACATCAG (sugars kkkddddddddkekek, PS)",43%,
"CACCACTGTGTACCCC (sugars kddddddddddkekek, PS)",0%,
"CACTGACACAGGCGGA (sugars kkkdddddddddkeke, PS)",0%,
"CAGGGAGTCAGACCTA (sugars k3 d10 k3, PS)",0%,
"CAGGTTCTTGGACTCT (sugars k3 d9 k3 e1, PS)",0%,
"CAGGTTCTTGGACTCT (sugars kkddddddddddkeke, PS)",28%,
"CATTCTATGCCTTTTA (sugars k3 d10 k3, PS)",24%,
"CATTCTATGCCTTTTA (sugars kddddddddddkekek, PS)",37%,
"CATTCTATGCCTTTTA (sugars kdddddddddkekeke, PS)",13%,
"CCAATGCAACATCCAT (sugars kkkddddddddkekek, PS)",0%,
"CCAATTTTGCATTCCA (sugars kkdddddddddkdkdk, PS)",42%,
"CCAATTTTGCATTCCA (sugars kkddddddddkekekk, PS)",39%,
"CCACTGTGTACCCCAT (sugars k2 d8 e4 k2, PS)",44%,
"CCACTGTGTACCCCAT (sugars k2 d9 e3 k2, PS)",64%,
"CCATTCTATGCCTTTT (sugars k2 d8 e4 k2, PS)",17%,
"CCATTCTATGCCTTTT (sugars k2 d9 e3 k2, PS)",50%,
"CCATTCTATGCCTTTT (sugars k3 d9 k3 e1, PS)",58% and 70%,"target mRNA inhibition (KARPAS-229, 0.44444 µM): 31%; target mRNA inhibition (KARPAS-229, 1.33333 µM): 44%; target mRNA inhibition (KARPAS-229, 12 µM): 78%"
"CCCAATGCAACATCCA (sugars k3 d9 k3 e1, PS)",0%,
"CCCAATGCAACATCCA (sugars kddddddddddkekek, PS)",0%,
"CCCAATGCAACATCCA (sugars kekdddddddddeekk, PS)",0%,
"CCCAATGCAACATCCA (sugars kkddddddddddkeke, PS)",0%,
"CCTATACAGCTAGGCC (sugars k3 d10 k3, PS)",0%,
"CCTTCTGCAGGGAGTC (sugars kkddddddddkekekk, PS)",0%,

Sequence,"target mRNA inhibition (KARPAS-229, 4 µM)",also measured
"CGGTCTTTGAGGTCTG (sugars k3 d9 k3 e1, PS)",32%,
"CGGTCTTTGAGGTCTG (sugars k3 d10 k3, PS)",32%,
"CGGTCTTTGAGGTCTG (sugars kkddddddddddkeke, PS)",43% and 46%,"target mRNA inhibition (KARPAS-229, 0.44444 µM): 31%; target mRNA inhibition (KARPAS-229, 1.33333 µM): 29%; target mRNA inhibition (KARPAS-229, 12 µM): 57%"
"CGGTCTTTGAGGTCTG (sugars kkddddddddkekekk, PS)",33%,
"CGGTCTTTGAGGTCTG (sugars kkkddddddddkekek, PS)",56%,
"CGGTGTATTTCCCTGT (sugars k3 d10 k3, PS)",0%,
"CTCTAAACCATTCTAT (sugars k3 d10 k3, PS)",0%,
"CTGATATGATACCTAA (sugars k3 d2 m1 d7 k3, PS)",,"target mRNA inhibition (A-431, 0.00412 µM): 1%; target mRNA inhibition (A-431, 0.01225 µM): 14%; target mRNA inhibition (A-431, 0.03704 µM): 31%; target mRNA inhibition (A-431, 0.11111 µM): 56%; target mRNA inhibition (A-431, 0.33333 µM): 74%; target mRNA inhibition (A-431, 1 µM): 79%"
"CTGATATGATACCTAA (sugars k3 d10 k3, linkages s4 [mop]1 s10)",,"target mRNA inhibition (A-431, 0.00412 µM): 11%; target mRNA inhibition (A-431, 0.01225 µM): 22%; target mRNA inhibition (A-431, 0.03704 µM): 29%; target mRNA inhibition (A-431, 0.11111 µM): 56%; target mRNA inhibition (A-431, 0.33333 µM): 76%; target mRNA inhibition (A-431, 1 µM): 78%"
"CTGAUATGATACCTAA (sugars k3 d1 m1 d8 k3, PS)",,"target mRNA inhibition (A-431, 0.00412 µM): 6%; target mRNA inhibition (A-431, 0.01225 µM): 23%; target mRNA inhibition (A-431, 0.03704 µM): 41%; target mRNA inhibition (A-431, 0.11111 µM): 64%; target mRNA inhibition (A-431, 0.33333 µM): 82%; target mRNA inhibition (A-431, 1 µM): 82%"
"CTGTCACATCTCCACA (sugars k2 d8 e4 k2, PS)",11%,
"CTTCTGCAGGGAGTCA (sugars k2 d8 e4 k2, PS)",0%,
"CTTCTGCAGGGAGTCA (sugars kkddddddddkekekk, PS)",0%,
"CTTGGTCTTGACCTCC (sugars k3 d10 k3, PS)",41%,
"CTTGGTCTTGACCTCC (sugars kddddddddddkekek, PS)",0%,
"CTTGTCTAGTGTCATG (sugars k3 d10 k3, PS)",58%,
"GAATTTTGTGACTGTA (sugars k3 d10 k3, PS)",57% and 67%,"target mRNA inhibition (KARPAS-229, 0.44444 µM): 41%; target mRNA inhibition (KARPAS-229, 1.33333 µM): 66%; target mRNA inhibition (KARPAS-229, 12 µM): 78%"
"GACTGTATTACCTATA (sugars k3 d10 k3, PS)",41%,
"GAGGAAGTGAGTCTCA (sugars k3 d10 k3, PS)",0%,
"GAGTCATGGGCTGAGG (sugars kkdddddddddkekek, PS)",15%,
"GAGTCATGGGCTGAGG (sugars kkkddddddddkekek, PS)",0%,
"GAGTCTCAAACCAGGG (sugars kkddddddddkekekk, PS)",0%,
"GATGGTGTTATCTCCG (sugars k2 d9 e3 k2, PS)",0%,
"GATGGTGTTATCTCCG (sugars kkddddddddkekekk, PS)",0%,

Sequence,"target mRNA inhibition (KARPAS-229, 4 µM)",also measured
"GATGGTGTTATCTCCG (sugars kkkddddddddkekek, PS)",0%,
"GCAAAGGGTGAGTAGG (sugars k3 d10 k3, PS)",24%,
"GCACTGACACAGGCGG (sugars kddddddddddkekek, PS)",0%,
"GCATTCCATATACACA (sugars k3 d10 k3, PS)",21%,
"GCATTCCATATACACA (sugars kkddddddddddkeke, PS)",37%,
"GCATTCCATATACACA (sugars kkdddddddddkekek, PS)",2%,
"GCATTCCATATACACA (sugars kkkddddddddkekek, PS)",0%,
"GCTGTCACATCTCCAC (sugars kdddddddddkekeke, PS)",0%,
"GCTGTCACATCTCCAC (sugars kkddddddddddkeke, PS)",8%,
"GCTGTCACATCTCCAC (sugars kkkddddddddkekek, PS)",0%,
"GCTTGGTCTTGACCTC (sugars kkkdddddddddkeke, PS)",35%,
"GGAAGTGAGTCTCAAA (sugars k2 d8 e4 k2, PS)",34%,
"GGAAGTGAGTCTCAAA (sugars k3 d10 k3, PS)",51% and 68%,"target mRNA inhibition (KARPAS-229, 0.44444 µM): 27%; target mRNA inhibition (KARPAS-229, 1.33333 µM): 39%; target mRNA inhibition (KARPAS-229, 12 µM): 79%"
"GGAAGTGAGTCTCAAA (sugars kkdddddddddkdkdk, PS)",12%,
"GGAGTGAGACGAGCAA (sugars k2 d8 e4 k2, PS)",17%,
"GGAGTGAGACGAGCAA (sugars k2 d9 e3 k2, PS)",25%,
"GGTCTGGCCCTTTTGG (sugars k3 d9 k3 e1, PS)",0%,
"GGTCTGGCCCTTTTGG (sugars kkkdddddddddkeke, PS)",17%,
"GGTCTTGACCTCCCGC (sugars k3 d10 k3, PS)",33%,
"GGTCTTGACCTCCCGC (sugars kdddddddddkekeke, PS)",35%,
"GGTCTTGACCTCCCGC (sugars kkddddddddddkeke, PS)",0%,
